Measurements taken from patent US12065445B2, “CDK2 inhibitors and methods of using the same” (Cedilla Therapeutics, Inc., priority 2021, dated 2024).

Key:
[1] = test system: Kuramochi cells labeled with mApple-H2B; assay: IncuCyte Cell Proliferation Assay; format: cell-based; details: 72 h
How it was run: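 GI50 came from dose-response fits of cell-count fold change between 0 and 72 h, normalized to DMSO controls. Counts were fluorescent nuclei from live-cell images over a 10-point, ½ log series starting at 20 μM.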

Kuramochi cells = assay: BrdU Cell Proliferation Assay; format: cell-based; details: read-out: BrdU - KURAMOCHI.1: IC50
How it was run: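 Signal is 450 nm absorbance from a peroxidase anti-BrdU ELISA after a 1-hour BrdU label, background-subtracted and normalized to DMSO-treated wells. Kuramochi cells (2,000 per well) had been exposed to compound for 4 days. Dosing used a 10-point dose response in 3-fold steps.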

| SMILES | IC50 [1] [µM] | IC50 (Kuramochi cells) [µM] |
| --- | --- | --- |
| CC1(C)C[C@@H]1C(=O)N1CC2(CN(C(=O)c3cncs3)C[C@H]2C(=O)NC(c2cccc(C3CCCCC3)n2)P(C)(C)=O)C1 (stereo partly shown) [I-494] | > 20 | > 10 |
| C[C@@H](OCC1CCCCC1)[C@@H](COCC1CCCCC1)NC(=O)[C@@H]1CN(C(=O)c2cncs2)CC12CN(C(=O)[C@H]1CC1(C)C)C2 [I-282] | ≤ 0.5 | ≤ 0.5 |
| CNC(=O)C(NC(=O)[C@@H]1CN(C(=O)c2cncs2)CC12CN(C(=O)[C@H]1CC1(C)C)C2)c1cccc(N2CC3(COC3)C2)n1 (stereo partly shown) [I-427] | > 20 | > 10 |
| CNC(=O)[C@@H](NC(=O)[C@@H]1CN(C(=O)c2cncs2)CC12CN(CC1CCOC1)C2)[C@@H](C)OCC12CCC(CC1)OC2 (stereo partly shown) [I-345] | > 20 | > 10 |
| COC[C@H]1CCCN(C(=O)[C@@H](NC(=O)[C@@H]2CN(C(=O)c3cncs3)CC23CN(C(=O)[C@H]2CC2(C)C)C3)[C@@H](C)OCc2ccc(F)cc2)C1 [I-318] | 0.5 to 5 | 0.5 to 5 |
| CNC(=O)C(NC(=O)[C@@H]1CN(C(=O)c2cncs2)CC12CN(C(=O)[C@H]1CC1(C)C)C2)c1cccc(N2CC3(CC(C(F)(F)F)C3)C2)n1 (stereo partly shown) [I-430] | > 20 | > 10 |
| CNC(=O)[C@@H](NC(=O)[C@@H]1CN(C(=O)c2cnn(Cc3ccccc3)c2)CC12CN(C(=O)[C@H]1CC1(C)C)C2)[C@@H](C)OCC1CCC(C)(C)CC1 [I-372] | ≤ 0.5 | ≤ 0.5 |
| COC[C@H]1CCCN(C(=O)[C@@H](NC(=O)[C@@H]2CN(C(=O)c3cncs3)CC23CN(C(=O)[C@H]2CC2(C)C)C3)[C@@H](C)O[C@H](C)C2CCCCC2)C1 [I-367] | 0.5 to 5 | 0.5 to 5 |
| CNC(=O)[C@@H](NC(=O)[C@@H]1CN(C(=O)c2cnn(Cc3ccccc3)c2)CC12CN(C(=O)[C@H]1CC1(C)C)C2)[C@@H](C)OCC12CC(C(=O)OC)(C1)C2 [I-299] | > 20 | > 10 |
| CNC(=O)[C@@H](NC(=O)[C@@H]1CN(C(=O)c2cnc(Cl)s2)CC12CN(C(=O)[C@H]1CC1(C)C)C2)[C@@H](C)OCC1CCCCC1 [I-189A] | 5 to 20 | > 10 |
| COC[C@H]1CCCN(C(=O)[C@@H](NC(=O)C2CN(C(=O)c3cncs3)CC23CN(C(=O)[C@H]2CC2(C)C)C3)[C@@H](C)OCC2CCCCC2)C1 (stereo partly shown) [I-196 mixture] | 0.5 to 5 | ≤ 0.5 |
| CNC(=O)[C@@H](NC(=O)[C@@H]1CN(C(=O)c2cncs2)CC12CN(C(=O)[C@H]1CC1(C)C)C2)[C@@H](C)OCC1CCC2(CC1)CC2 [I-355] | ≤ 0.5 | 0.5 to 5 |
| CNC(=O)[C@@H](NC(=O)[C@H]1CN(C(=O)c2sc(C)nc2C)CC12CN(C(=O)[C@H]1CC1(C)C)C2)[C@@H](C)OCC1CCCCC1 [I-213B] | > 20 | > 10 |
| CNC(=O)[C@@H](NC(=O)[C@H]1CN(C(=O)c2cnc(COC(C)(C)C)s2)CC12CN(C(=O)[C@H]1CC1(C)C)C2)[C@@H](C)OCC1CCCCC1 [I-175B] | 5 to 20 | > 10 |
| CNC(=O)[C@@H](NC(=O)[C@@H]1CN(C(=O)c2cncs2)CC12CN(CC1CCCC1)C2)[C@@H](C)OCC12CCC(CC1)OC2 [I-344, (S)—N-((2S,3R)-3-(2-oxabicyclo[2.2.2]octan-4-ylmethoxy)-1-(methylamino)-1-oxobutan-2-yl)-2-(cyclopentylmethyl)-6-(thiazole-5-carbonyl)-2,6-diazaspiro[3.4]octane-8-carboxamide] | > 20 | > 10 |
| CNC(=O)[C@@H](NC(=O)[C@@H]1CN(C(=O)Cc2cnn(Cc3ccccc3)c2)CC12CN(C(=O)[C@H]1CC1(C)C)C2)[C@@H](C)OCc1ccccc1 [I-373] | > 20 | > 10 |
| CNC(=O)[C@@H](NC(=O)[C@@H]1CN(C(=O)c2cnc(CC3CC3)s2)CC12CN(C(=O)[C@H]1CC1(C)C)C2)[C@@H](C)OCC1CCCCC1 [I-177A] | 5 to 20 | 0.5 to 5 |
| CC1(C)C[C@@H]1C(=O)N1CC2(CN(C(=O)c3cncs3)C[C@@H]2C(=O)N[C@@H](COCC2CCCCC2)C(=O)N2CCCCC2)C1 [I-293] | > 20 | > 10 |
| C[C@@H](OCC1CCCCC1)[C@H](NC(=O)[C@@H]1CN(C(=O)c2cnn(Cc3ccccc3)c2)CC12CN(C(=O)[C@H]1CC1(C)C)C2)C(=O)N1CCOCC1 [I-152A] | ≤ 0.5 | ≤ 0.5 |
| CNC(=O)[C@@H](NC(=O)[C@@H]1CN(C(=O)c2cnn(Cc3ccccc3)c2)CC12CN(C(=O)[C@H]1CC1(C)C)C2)[C@@H](C)OC[C@H]1CC[C@H](OC)CC1 [I-403] | > 20 | > 10 |
| C[C@@H](OCc1ccccc1)[C@H](NC(=O)[C@@H]1CN(C(=O)c2cnn(Cc3ccccc3)c2)CC12CN(C(=O)[C@H]1CC1(C)C)C2)C(N)=O [I-176A] | > 20 | > 10 |
| Cc1ccc2[nH]c(CNC(=O)C3CN(C(=O)c4cnn(Cc5ccccc5)c4)CC34CN(C(=O)[C@H]3CC3(C)C)C4)nc2c1 (stereo partly shown) [I-278] | > 20 | > 10 |

| SMILES | IC50 [1] [µM] | IC50 (Kuramochi cells) [µM] |
| --- | --- | --- |
| C[C@@H](OCC1CCC(F)(F)CC1)[C@H](NC(=O)[C@@H]1CN(C(=O)c2cn[nH]c2)CC12CN(C(=O)C1(C(F)(F)F)CC1)C2)C(=O)N1CCOCC1 [I-302] | > 20 | > 10 |
| C[C@@H](OCC1CCC(F)(F)CC1)[C@H](NC(=O)[C@@H]1CN(C(=O)c2cnn(Cc3ccc(F)cc3)c2)CC12CN(C(=O)[C@H]1CC1(C)C)C2)C(=O)N1CCC(F)(F)CC1 [I-164A] | ≤ 0.5 | ≤ 0.5 |
| CNC(=O)[C@@H](NC(=O)C1CN(C(=O)c2cnn(Cc3ccccc3)c2)CC12CN(C(=O)[C@H]1CC1(C)C)C2)[C@@H](C)OCc1ccccn1 (stereo partly shown) [I-257] | > 20 | > 10 |
| CNC(=O)[C@H](CO)NC(=O)C1CN(C(=O)c2cnn(Cc3ccccc3)c2)CC12CN(C(=O)[C@H]1CC1(C)C)C2 (stereo partly shown) [I-260] | > 20 | > 10 |
| CNC(=O)[C@@H](NC(=O)[C@@H]1CN(C(=O)c2cncs2)CC12CN(C(=O)[C@H]1CC1(C)C)C2)[C@@H](C)OC1C2CC3CC(C2)CC1C3 (stereo partly shown) [I-463] | 0.5 to 5 | 0.5 to 5 |
| CC1(C)C[C@@H]1C(=O)N1CC2(CN(C(=O)c3cnn(Cc4ccccc4)c3)C[C@H]2C(=O)N[C@@H]2CCN(C3CC3)C2=O)C1 [I-259] | > 20 | > 10 |
| CC1(C)C[C@@H]1C(=O)N1CC2(CN(C(=O)c3cnn(Cc4ccccc4)c3)C[C@@H]2C(=O)NCc2nnc[nH]2)C1 [I-191B] | > 20 | > 10 |
| CNC(=O)[C@@H](NC(=O)[C@H]1CN(C(=O)c2cnc(Cl)s2)CC12CN(C(=O)[C@H]1CC1(C)C)C2)[C@@H](C)OCC1CCCCC1 [I-189B] | > 20 | > 10 |
| C[C@@H](OCC1CCC(F)(F)CC1)[C@H](NC(=O)[C@@H]1CN(C(=O)c2cncs2)CC12CN(C(=O)[C@H]1CC1(C)C)C2)C(=O)N1C2CCC1COC2 [I-468] | ≤ 0.5 | ≤ 0.5 |
| CNC(=O)[C@@H](NC(=O)[C@@H]1CN(C(=O)c2cnn(Cc3ccccc3)c2)CC12CN(C(=O)C(C)(C)C)C2)[C@@H](C)OCC1CCCCC1 [I-174A] | 0.5 to 5 | 0.5 to 5 |
| CNC(=O)[C@@H](NC(=O)[C@@H]1CN(C(=O)c2cnn(Cc3ccccc3)c2)CC12CN(C(=O)[C@H]1CC1(C)C)C2)[C@@H](C)OCCC1CCCCC1 [I-125A] | ≤ 0.5 | ≤ 0.5 |
| C[C@@H](OCC1CCCCC1)[C@@H](COC1CCCCC1)NC(=O)[C@@H]1CN(C(=O)c2cncs2)CC12CN(C(=O)[C@H]1CC1(C)C)C2 [I-308] | 0.5 to 5 | ≤ 0.5 |
| CNC(=O)[C@@H](NC(=O)[C@H]1CN(C(=O)c2cnn(Cc3ccccc3)c2)CC12CN(C(=O)[C@H]1CC1(C)C)C2)[C@@H](C)OCC(C)C [I-137B] | > 20 | > 10 |
| C[C@@H](OCC1CCCCC1)[C@@H](COC(F)(F)F)NC(=O)[C@@H]1CN(C(=O)c2cnn(Cc3ccccc3)c2)CC12CN(C(=O)[C@H]1CC1(C)C)C2 [I-309] | 0.5 to 5 | 0.5 to 5 |
| COC[C@H]1CCCN(C(=O)[C@@H](NC(=O)[C@@H]2CN(C(=O)c3cncs3)CC23CN(C(=O)[C@H]2CC2(C)C)C3)[C@@H](C)OC(C)C2CCCCC2)C1 (stereo partly shown) [I-374] | 0.5 to 5 | 0.5 to 5 |
| CC(=O)N1C[C@@H](C(=O)N[C@H](C(=O)N2CCCCC2)[C@@H](C)OCC2CCCCC2)C2(C1)CN(C(=O)[C@H]1CC1(C)C)C2 [I-118] | > 20 | > 10 |
| C[C@@H](OCC1CCCCC1)[C@H](NC(=O)[C@@H]1CN(C(=O)c2cnn(CC(F)(F)F)c2)CC12CN(C(=O)[C@H]1CC1(C)C)C2)C(=O)N1CCCCC1 [I-132] | 0.5 to 5 | 0.5 to 5 |
| CN1CC[C@@H](NC(=O)[C@@H]2CN(C(=O)c3cnn(Cc4ccccc4)c3)CC23CN(C(=O)[C@H]2CC2(C)C)C3)C1=O [I-258] | > 20 | > 10 |
| CC(O[C@H](C)[C@H](NC(=O)[C@@H]1CN(C(=O)c2cncs2)CC12CN(C(=O)[C@H]1CC1(C)C)C2)C(=O)N1CCCCC1)C1CCCCC1 (stereo partly drawn) [I-284, (8S)—N-((2S,3R)-3-(1-cyclohexylethoxy)-1-oxo-1-(piperidin-1-yl)butan-2-yl)-2-((S)-2,2-dimethylcyclopropane-1-carbonyl)-6-(thiazole-5-carbonyl)-2,6-diazaspiro[3.4]octane-8-carboxamide] | 0.5 to 5 | 0.5 to 5 |
| C[C@@H](OCC1CCCCC1)[C@H](NC(=O)[C@@H]1CN(C(=O)c2cnn(C(F)(F)F)c2)CC12CN(C(=O)[C@H]1CC1(C)C)C2)C(=O)N1CCCCC1 [I-115] | 5 to 20 | > 10 |
| COC[C@H]1CCCN(C(=O)[C@@H](NC(=O)[C@@H]2CN(C(=O)c3cncs3)CC23CN(C(=O)C(C)(C)C2CC2)C3)[C@@H](C)OC(C)C2CCC(F)(F)CC2)C1 (stereo partly shown) [I-399] | 0.5 to 5 | 0.5 to 5 |
| Cc1cc(C(=O)N2CC(C(=O)N[C@H](C(=O)N3CCCCC3)[C@@H](C)OCC3CCCCC3)C3(C2)CN(C(=O)[C@H]2CC2(C)C)C3)[nH]n1 (stereo partly shown) [I-264] | > 20 | > 10 |
